The text below walks through data of patent US10179173B2, “Semi-solid delivery systems” (Regents of the University of Minnesota, priority 2012, dated 2019).

Data set [1] in a line: In vitro drug release from drug loaded semi-solid polymer in buffered saline. The format is physicochemical. The procedure:
A certain amount of drugs (Ibuprofen or BSA) were grinded into fine particles and then mixed with certain amount of polymer in a glass vial. […] At certain time points, the buffer was removed for analysis and replaced with fresh buffer. The amount of Ibu released in the medium was measured by UV spectroscopy (Beckman Coulter, DU 640B spectrophotometer) for absorbance at 263 nm.

A short description of data set [2]: Solubility of drugs in water and in the semi-solid polymer. The format is physicochemical. The following applies: PCL-OE-1.
For data set [3] the following is noted: cited from earlier work.
For data set [4] the following is noted: mouse, in vivo, sc.
Protocol: In vivo biocompatibility of the polymer was evaluated by subcutaneous injection into mice through 18-gauge needles; 50 mg of polymer was injected for each mouse. At certain time point, mouse was sacrificed and the tissue of the injection site harvested, sectioned, and stained with H&E.

Take `CC(C)Cc1ccc(C(C)C(=O)O)cc1` (centres unmarked) [Ibu, Ibuprofen]: in data set [1] (5 wt % in PCL-OE-1, pH 7.4 and pH 5.0), the “duration of sustained release of Ibu from the semi-solid polymer” value is “at least three”. Further, the “effect of pH on sustained release of Ibu” value in data set [1] (pH 7.4 versus pH 5.0) is recorded as “not affected by pH”. For the same molecule, the “solubility in the semi-solid polymer” value in data set [2] is given as “excellent solubility”. Also, in data set [3], the solubility in water entry is given as “poor solubility in water”.
With “poly(ortho ester caprolactone) [PCL-OE-1]”, the “tissue damage or inflammatory response at injection site (H&E)” value in data set [4] is “No visible tissue damage or inflammatory response”.
